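These data come from cells grown in 96-well plates and exposed to compound for 48 hours at five concentrations. TGI denotes the concentration required for complete inhibition of growth.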
Experiments:
Assay in all cases: inhibition of tumour cell growth, NCI panel, 48 h
[1] = tested on: 786-0 renal
[2] = tested on: A498 renal
[3] = tested on: A549 NSCLC
[4] = tested on: ACHN renal
[5] = tested on: CAKI-1 renal
[6] = tested on: CCRF-CEM leukemia
[7] = tested on: COLO 205 colon
[8] = tested on: DU-145 prostate
[9] = tested on: EKVX NSCLC
[10] = tested on: HCC-2998 colon
[11] = tested on: HCT-116 colon
[12] = tested on: HCT-15 colon
[13] = tested on: HL-60(TB) leukemia
[14] = tested on: HOP-92 NSCLC
[15] = tested on: IGROV1 ovarian
[16] = tested on: K-562 leukemia
[17] = tested on: KM12 colon
[18] = tested on: LOX IMVI melanoma
[19] = tested on: M14 melanoma
[20] = tested on: MALME-3M melanoma
[21] = tested on: MCF7 breast
[22] = tested on: MDA-MB-231 breast
[23] = tested on: MDA-MB-435
[24] = tested on: MDA-N
[25] = tested on: MOLT-4 leukemia
[26] = tested on: NCI-H226 lung
[27] = tested on: NCI-H23 lung
[28] = tested on: NCI-H460 lung
[29] = tested on: NCI-H522 lung
[30] = tested on: NCI/ADR-RES ovarian
[31] = tested on: OVCAR-3 ovarian
[32] = tested on: OVCAR-4 ovarian
[33] = tested on: OVCAR-5 ovarian
[34] = tested on: OVCAR-8 ovarian
[35] = tested on: PC-3 prostate
[36] = tested on: RPMI-8226 leukemia
[37] = tested on: RXF 393 renal
[38] = tested on: SF-295 CNS
[39] = tested on: SF-539 CNS
[40] = tested on: SK-MEL-2 melanoma
[41] = tested on: SK-MEL-5 melanoma
[42] = tested on: SK-OV-3 ovarian
[43] = tested on: SN12C renal
[44] = tested on: SNB-75 CNS
[45] = tested on: SR leukemia
[46] = tested on: SW-620 colon
[47] = tested on: TK-10 renal
[48] = tested on: U251 CNS
[49] = tested on: UACC-257 melanoma
[50] = tested on: UACC-62 melanoma
[51] = tested on: UO-31 renal
[52] = tested on: BT-549 breast
[53] = tested on: HOP-62 NSCLC
[54] = tested on: HT29 colon
[55] = tested on: SF-268 CNS
[56] = tested on: SK-MEL-28 melanoma
[57] = tested on: SNB-19 CNS

O=CC1=C(C(=O)OC(c2ccccc2)c2ccccc2)N2C(=O)[C@@H](NC(=O)Cc3cccs3)[C@H]2SC1 gave a TGI [1] of over 100 µM, a TGI [2] of over 100 µM and a TGI [3] of over 100 µM. It also gave a TGI [4] of over 100 µM, a TGI [5] of over 100 µM and a TGI [6] of over 100 µM. For the same compound, the TGI [7] was over 100 µM, the TGI [8] was over 100 µM and the TGI [9] was over 100 µM. It also gave a TGI [10] of over 100 µM, a TGI [11] of over 100 µM and a TGI [12] of over 100 µM. The TGI [13] was over 100 µM, the TGI [14] was over 100 µM and the TGI [15] was over 100 µM. The TGI [16] was over 100 µM, the TGI [17] was over 100 µM and the TGI [18] was over 100 µM. For the same compound, the TGI [19] was over 100 µM, the TGI [20] was over 100 µM and the TGI [21] was over 100 µM. The TGI [22] was over 100 µM, the TGI [23] was over 100 µM and the TGI [24] was over 100 µM. It also gave a TGI [25] of over 100 µM, a TGI [26] of over 100 µM and a TGI [27] of over 100 µM. For the same compound, the TGI [28] was over 100 µM, the TGI [29] was over 100 µM and the TGI [30] was over 100 µM. For the same compound, the TGI [31] was over 100 µM, the TGI [32] was over 100 µM and the TGI [33] was over 100 µM. The TGI [34] was over 100 µM, the TGI [35] was over 100 µM and the TGI [36] was over 100 µM. For the same compound, the TGI [37] was over 100 µM, the TGI [38] was over 100 µM and the TGI [39] was over 100 µM. It also gave a TGI [40] of over 100 µM, a TGI [41] of over 100 µM and a TGI [42] of over 100 µM. The TGI [43] was over 100 µM, the TGI [44] was over 100 µM and the TGI [45] was over 100 µM. The TGI [46] was over 100 µM, the TGI [47] was over 100 µM and the TGI [48] was over 100 µM. For the same compound, the TGI [49] was over 100 µM, the TGI [50] was over 100 µM and the TGI [51] was over 100 µM.

COc1cc2c[n+](C)c3c4cc(OC)c(OC)cc4c(OCc4ccccc4)cc3c2cc1OC gave a TGI [1] of 12.3 µM, a TGI [2] of over 86.7 µM and a TGI [3] of over 100 µM. For the same compound, the TGI [4] was over 100 µM, the TGI [52] was 1.71 µM and the TGI [5] was over 90.7 µM. The TGI [7] was 1.96 µM, the TGI [8] was 9.81 µM and the TGI [9] was over 100 µM. It also gave a TGI [10] of 41.3 µM, a TGI [12] of over 100 µM and a TGI [53] of 10.5 µM. It also gave a TGI [14] of 3.24 µM, a TGI [54] of 7.29 µM and a TGI [16] of over 100 µM. For the same compound, the TGI [19] was 4.2 µM, the TGI [20] was 3.31 µM and the TGI [21] was 5.05 µM. It also gave a TGI [22] of 6.69 µM, a TGI [23] of 2.34 µM and a TGI [24] of 2.53 µM. For the same compound, the TGI [25] was over 80.1 µM, the TGI [26] was 3.94 µM and the TGI [27] was 4.36 µM. The TGI [28] was over 100 µM, the TGI [29] was 1.5 µM and the TGI [30] was over 100 µM. For the same compound, the TGI [31] was 3.97 µM, the TGI [32] was over 27.5 µM and the TGI [33] was over 100 µM. For the same compound, the TGI [34] was 5.02 µM, the TGI [35] was 3.41 µM and the TGI [36] was 77.2 µM. The TGI [37] was 6.19 µM, the TGI [55] was 1.97 µM and the TGI [38] was 96.9 µM. For the same compound, the TGI [40] was 3.37 µM, the TGI [56] was 2.55 µM and the TGI [41] was 2.69 µM. The TGI [42] was over 100 µM, the TGI [43] was over 100 µM and the TGI [57] was 1.92 µM. The TGI [45] was over 100 µM, the TGI [46] was over 100 µM and the TGI [47] was over 100 µM. It also gave a TGI [48] of 1.08 µM, a TGI [49] of 3.38 µM and a TGI [50] of 1.8 µM. The TGI [51] was over 100 µM.
